Measurements as given in patent publication US20150105252A1, “SUBSTITUTED PYRAZOLES AS HERBICIDES” (E I DU PONT DE NEMOURS AND COMPANY, priority 2013, published 2015).

How the values were obtained:
Experiment in all cases: Test F preemergence
pigweed, palmer = type: in vivo, Amaranthus palmeri
Excerpt: (§1) Seeds of plant species selected from corn (Zea mays), soybean (Glycine max), velvetleaf (Abutilon theophrasti), lambsquarters (Chenopodium album), wild poinsettia (Euphorbia heterophylla), pigweed, palmer (palmer pigweed, Amaranthus palmeri), common waterhemp (Amaranthus rudis), surinam grass (Brachiaria decumbens), large crabgrass (Digitaria sanguinalis), crabgrass, Brazil (Brazilian crabgrass, Digitaria horizontalis), fall panicum (Panicum dichotomiflorum), giant foxtail (Setaria faberii), green foxtail (Setaria viridis), goosegrass (Eleusine indica), johnsongrass (Sorghum halepense), common ragweed (Ambrosia elation), barnyardgrass (Echinochloa crus-galli), southern sandbur (Cenchrus echinatus), arrowleaf sida (Sida rhombifolia), Italian ryegrass (Lolium multiflorum), dayflower, VA (Virginia (VA) dayflower, Commelina virginica), field bindweed (Convolvulus arvensis), cocklebur (common cocklebur, Xanthium strumarium), morningglory (Ipomoea coccinea), nightshade (eastern black nightshade, Solanum ptycanthum), kochia (Kochia scoparia), yellow nutsedge (Cyperus esculentus), and hairy beggarticks (Bidens pilosa), were planted into a silt loam soil and treated preemergence with test chemicals formulated in a non-phytotoxic solvent mixture which included a surfactant.
(§2) At the same time, plants from these crop and weed species and also horseweed (Canada horseweed, Conyza canadensis), smartweed (ladysthumb smartweed, Polygonum persicaria), waterhemp_RES1, (ALS & Triazine resistant common waterhemp, Amaranthus rudis), and waterhemp_RES2, (ALS & HPPD resistant common waterhemp, Amaranthus rudis) were treated with postemergence applications of test chemicals formulated in the same manner. Plants ranged in height from 2 to 18 cm for postemergence treatments (1- to 4-leaf stage). Treated plants and controls were maintained in a greenhouse for 14 to 21 days, after which time all species were compared to controls and visually evaluated. Plant response ratings, summarized in Table F, are based on a scale of 0 to 100 where 0 is no effect and 100 is complete control. A dash (-) response means no test result.

common waterhemp = type: in vivo, Amaranthus rudis
Excerpt: as §1, §2

corn = type: in vivo, Zea mays
Excerpt: as §1, §2

lambsquarters = type: in vivo, Chenopodium album
Excerpt: as §1, §2

[1] = Preemergence, 31 g ai/ha, scale 0 to 100
[2] = Preemergence, 62 g ai/ha, scale 0 to 100
[3] = Preemergence, 125 g ai/ha, scale 0 to 100
[4] = preemergence, 8 g ai/ha, scale 0 to 100, 100 is complete control
[5] = preemergence, 16 g ai/ha, scale 0 to 100, 100 is complete control
[6] = Preemergence, 16 g ai/ha, scale 0 to 100
[7] = Preemergence, 250 g ai/ha, scale 0 to 100

| SMILES | Plant response rating, Pigweed, Palmer (pigweed, palmer; [1]) | Plant response rating, Pigweed, Palmer (pigweed, palmer; [2]) | Plant response rating, Pigweed, Palmer (pigweed, palmer; [3]) | Plant response rating, Pigweed, Palmer (pigweed, palmer; [4]) | Plant response rating, Pigweed, Palmer (pigweed, palmer; [5]) | Plant response rating, Common Waterhemp (common waterhemp; [1]) | Plant response rating, Common Waterhemp (common waterhemp; [2]) | Plant response rating, Common Waterhemp (common waterhemp; [3]) | Plant response rating, Common Waterhemp (common waterhemp; [4]) | Plant response rating, Common Waterhemp (common waterhemp; [5]) | Plant response rating, Corn (corn; [1]) | Plant response rating, Corn (corn; [2]) | Plant response rating, Corn (corn; [3]) | Plant response rating, Corn (corn; [4]) | Plant response rating, Corn (corn; [5]) | Plant response rating, Lambsquarters (lambsquarters; [2]) | Plant response rating, Lambsquarters (lambsquarters; [3]) | Plant response rating, Lambsquarters (lambsquarters; [4]) | Plant response rating, Lambsquarters (lambsquarters; [5]) | Plant response rating, Common Waterhemp (common waterhemp; [6]) | also measured |
| --- | --- | --- | --- | --- | --- | --- | --- | --- | --- | --- | --- | --- | --- | --- | --- | --- | --- | --- | --- | --- | --- |
| CCOc1cc(C(=O)NCC(F)(F)F)nn1Cc1ccnc(C(F)(F)F)c1 [Compound 104] | 50 | 50 | 100 | 0 | 0 | 100 | 100 | 100 | 65 | 98 | 30 | 50 | 60 | 0 | 0 | 100 | 100 | 35 | 60 |  | Plant response rating, Lambsquarters (lambsquarters; [1]): 100 |
| CCNC(=O)c1cc(CCCl)n(Cc2ccnc(C(F)(F)F)c2)n1 [Compound 179] | 0 | 35 | 100 | 0 |  | 0 | 25 | 75 | 0 |  | 20 | 30 | 30 | 0 |  | 30 | 100 |  |  |  |  |
| CCNC(=O)c1cc(CC)n(Cc2ccnc(C(F)(F)F)c2)n1 [Compound 196] |  | 100 | 100 | 0 | 0 |  | 75 | 100 | 0 | 35 |  | 0 | 25 | 0 | 0 | 98 | 100 | 0 | 5 | 50 |  |
| Cc1cc(C(=O)NC(C)C)nn1Cc1ccnc(C(F)(F)F)c1 [Compound 197] |  | 95 | 90 | 10 | 35 |  | 65 | 85 | 20 | 60 |  | 0 | 20 | 0 | 0 | 35 | 80 | 0 | 35 | 65 |  |
| CCc1cc(C(=O)NC2CC2)nn1Cc1ccnc(OCC(F)(F)F)c1 [Compound 200] |  | 0 | 95 |  | 0 |  | 20 | 100 |  |  |  | 0 | 0 |  | 0 | 65 | 70 |  | 0 | 0 | Plant response rating, Pigweed, Palmer (pigweed, palmer; [7]): 85; Plant response rating, Common Waterhemp (common waterhemp; [7]): 100; Plant response rating, Corn (corn; [7]): 35; Plant response rating, Lambsquarters (lambsquarters; [7]): 98 |
